What is called NOAEL is the highest dose or exposure tested at which no adverse effect was seen.

A value given as a limit tells only on which side of the number the result lay.

The values below come from US20230256099A1, “Safe Use of Bile Acids and Their Salts as Enhancers for Nasal Delivery of Pharmaceuticals” (priority 2020, published 2023).

Series [1] is described as follows: General toxicity study of bile salt (STC) by IN delivery: clinical pathology and organ histopathology (Example 2). As to conditions: rat, in vivo, NOAEL for bile salt (STC) at an IN delivery, relative dose, rats; 0.75 mg / 0.298 kg. The procedure: Each rat was treated with two (2) IN administrations of the respective formulations in Groups A1-A5.
The conditions of series [2]: aqueous; cited from earlier work.
For series [3] the following is noted: aqueous epinephrine, same dose by IM route; cited from earlier work.

In the case of `C[C@H](CCC(=O)NCCS(=O)(=O)[O-])[C@H]1CC[C@H]2[C@@H]3[C@H](O)C[C@@H]4C[C@H](O)CC[C@]4(C)[C@H]3C[C@H](O)[C@]12C.[Na+]` [STC, sodium taurocholate], the NOAEL in series [1] was at least 2.5 mg/kg.

With `C[C@H](CCC(=O)[O-])[C@H]1CC[C@H]2[C@@H]3CC[C@@H]4C[C@H](O)CC[C@]4(C)[C@H]3CC[C@]12C.[Na+]` [SLC, sodium lithocholate], the CMC in series [2] was about 1 mM.

As for `CNC[C@H](O)c1ccc(O)c(O)c1` [epinephrine], in series [3], the “bioavailability (BA) based on AUC of plasma concentration, IN relative to IM” value is given as “approximately 5%”.

`C[C@H](CCC(=O)[O-])[C@H]1CC[C@H]2[C@@H]3[C@H](O)C[C@@H]4C[C@H](O)CC[C@]4(C)[C@H]3C[C@H](O)[C@]12C.[Na+]` [SC, sodium cholate]: in series [2], the CMC is listed as about 4 mM.
